In patent US20200165194A1, “ADDITIVE COMPOSITION FOR CULTURE MEDIUM, ADDITIVE COMPOUND FOR CULTURE MEDIUM, AND METHOD FOR CULTURE OF CELLS OR TISSUE USING SAME” (NISSAN CHEMICAL CORPORATION, priority 2017, published 2020):
Like-named read-outs stand apart in the source and are kept apart here.

Assays:
Format in all cases: cell-based
[1] = system: human alveolar basal epithelial adenocarcinoma-derived cell line A549; assay: Various human cancer cells-2, 3D culture, ATP assay (Experimental Example 6); details: 4 days; for viability at 5 µM / viability at 10 µM: Homo sapiens, A549, 96 h, read-out: number of viable cells (RLU), relative value to control (100%)
Description: (§1) Various human-derived cancer cells were precultured (single layer culture) in respective media shown below. […] The above-mentioned cells in the logarithmic growth phase were washed with PBS, a 0.25 w/v % trypsin-1 mmol/L EDTA (ethylenediaminetetraacetic acid) solution (manufactured by Wako Pure Chemical Industries, Ltd.) was added, and adherent cells were detached by incubating at 37° C. for 1-5 min. Each medium was added and the mixture was centrifuged. After resuspension in the same medium, each cell was recovered.
(§2) The aforementioned various cells were suspended in respective deacylated gellan gum-containing or not containing media (deacylated gellan gum concentration was 0.015 w/v %), and seeded in a 96 well low attachment U-bottom plate (manufactured by Corning, #4520, deacylated gellan gum-free medium), or a low attachment flat bottom plate (manufactured by Corning, #3474, deacylated gellan gum-containing medium) at a cell concentration of 700-12000 cells/90 μL/well (all 3D culture). […] The amount of each compound solution to be added was 10 μL/well. As a control, a DMSO solution dissolved in a medium was added (DMSO final concentration 0.1%). […] When compared with the compound no-addition (control), one showing a value of not more than 119% as -, one showing a value of not less than 120% as ◯, and one showing a value of not less than 150% as ⊚ are shown in the eleventh table and the twelfth table. Unperformed test is left blank.

[2] = system: human ovarian cancer cell line SKOV3; assay: as above; details: 4 days; for viability at 5 µM / viability at 10 µM: Homo sapiens, SK-OV-3, 96 h, read-out: number of viable cells (RLU), relative value to control (100%)
Description: as §1, §2

[3] = system: Human umbilical vein endothelial cells; assay: Vascular endothelial cell, 3D culture, ATP assay (Experimental Example 14); details: for proliferation activity (in words): human umbilical vein endothelial cells under three-dimensional conditions; for viability at 5 µM / viability at 10 µM: Homo sapiens, HUVEC, 96 h, 4 days, no-addition = 100%, read-out: relative value of RLU (number of viable cells)
Description: Human umbilical vein endothelial cells (manufactured by PromoCell) were precultured in Endothelial Cell proliferation Medium (manufactured by PromoCell) medium (single layer culture). The above-mentioned cells in the logarithmic growth phase were washed with PBS, DetachKit (manufactured by PromoCell) was added, and adherent cells were detached by incubating at 37° C. for 3 min. The medium was added and the mixture was centrifuged and resuspended in the same medium.
The aforementioned cells were suspended in respective deacylated gellan gum-containing or not containing media (deacylated gellan gum concentration was 0.015 w/v %), and seeded in a 96 well low attachment U-bottom plate (manufactured by Corning, #4520, deacylated gellan gum-free medium), or a low attachment flat bottom plate (manufactured by Corning, #3474, deacylated gellan gum-containing medium) at a cell concentration of 700-2000 cells/90 μL/well (all 3D culture). […] The amount of each compound solution to be added was 10 μL/well. As a control, a DMSO solution dissolved in a medium was added (DMSO final concentration 0.1%).

[4] = system: Cercopithecus aethiops kidney epithelium-derived cell line Vero; assay: Animal cell lines, 3D culture, ATP assay (Experimental Example 15)
From the text: (§3) Various animal cell lines were precultured (single layer culture) as follows in respective media. Chinese hamster ovary-derived cell line CHO-K1 (manufactured by DS PHARMA BIO MEDICAL, 10% fetal bovine serum (FBS, manufactured by Corning)-containing Ham's F-12 medium (manufactured by Fujifilm Wako Pure Chemical Corporation)), Cercopithecus aethiops kidney epithelium-derived cell line Vero (purchased from JCRB cell bank, 5% FBS-containing Medium 199 medium (manufactured by Life Technologies)). The above-mentioned cells in the logarithmic growth phase were washed with PBS, a 0.25 w/v % trypsin-1 mmol/L EDTA (ethylenediaminetetraacetic acid) solution (manufactured by Fujifilm Wako Pure Chemical Corporation) was added, and adherent cells were detached by incubating at 37° C. for 3 min. Each medium was added and the mixture was centrifuged and resuspended in the same medium.
(§4) The aforementioned various animal cells were suspended in respective deacylated gellan gum-containing or not containing media (deacylated gellan gum concentration was 0.02 w/v % in Ham's F-12 medium, 0.015 w/v % in Medium 199 medium), and seeded in a 96 well low attachment U-bottom plate (manufactured by Corning, #4520, deacylated gellan gum-free medium), or a low attachment flat bottom plate (manufactured by Corning, #3474, deacylated gellan gum-containing medium) at a cell concentration of 700-2000 cells/90 μL/well (all 3D culture). […] The amount of each compound solution to be added was […]. As a control, a DMSO solution dissolved in a medium was added (DMSO final concentration 0.1%). […] When compared with the compound non-addition (control), one showing a value of not more than 119% as -, one showing a value of not less than 120% as ◯, and one showing a value of not less than 150% as ⊚ are shown in the twenty-third table and the twenty-fourth table.

[5] = system: Chinese hamster ovary-derived cell line CHO-K1; assay: as above; details: 4 days; for viability at 5 µM / viability at 10 µM: Cricetulus griseus, CHO-K1, 96 h
From the text: as §3, §4

plural animal cell lines = assay: Animal cell lines, summary over the cell lines (Experimental Example 15); details: animal cell lines under three-dimensional conditions
From the text: as §3, §4

[6] = system: a plurality of cancer cell lines; assay: Various human cancer cells-2, summary over the cell lines (Experimental Example 6); details: cancer cell lines under three-dimensional conditions
Description: as §1, §2

[7] = low attachment U-bottom plate, 5 μM
[8] = low attachment U-bottom plate, 10 μM
[9] = low attachment flat bottom plate (gellan gum medium), 5 μM
[10] = low attachment flat bottom plate (gellan gum medium), 10 μM
[11] = low attachment U-bottom plate, 5 μM, 4 days
[12] = low attachment U-bottom plate, 10 μM, 4 days
[13] = low attachment flat bottom plate (deacylated gellan gum-containing medium), 10 μM, 4 days
[14] = CHO-K1, low attachment flat bottom plate (deacylated gellan gum-containing medium), 10 μM
[15] = low attachment flat bottom plate (deacylated gellan gum-containing medium)
[16] = CHO-K1, low attachment U-bottom plate, 5 μM, read-out: number of viable cells (RLU), relative value to control (100%)
[17] = CHO-K1, low attachment U-bottom plate, 10 μM, read-out: number of viable cells (RLU), relative value to control (100%)
[18] = low attachment flat bottom plate (deacylated gellan gum-containing medium), 5 μM, 4 days
[19] = CHO-K1, low attachment flat bottom plate (deacylated gellan gum-containing medium), 5 μM

Row | SMILES | number of viable cells (RLU), relative value to control (100%) [1, 7] | number of viable cells (RLU), relative value to control (100%) [1, 8] | number of viable cells (RLU), relative value to control (100%) [1, 9] | number of viable cells (RLU), relative value to control (100%) [1, 10] | number of viable cells (RLU), relative value to control (100%) [2, 7] | number of viable cells (RLU), relative value to control (100%) [2, 8] | number of viable cells (RLU), relative value to control (100%) [2, 9] | number of viable cells (RLU), relative value to control (100%) [2, 10] | proliferation activity (in words) [3] | number of viable cells (RLU), relative value to control (100%) [4, 11] | number of viable cells (RLU), relative value to control (100%) [4, 12] | number of viable cells (RLU), relative value to control (100%) [4, 13] | number of viable cells (RLU), relative value to control (100%) [5, 14] | proliferation activity (in words) (plural animal cell lines) | proliferation activity (in words) [6] | viability at 5 µM [5, 16] [%] | viability at 10 µM [5, 17] [%] | number of viable cells (RLU), relative value to control (100%) [4, 18] | number of viable cells (RLU), relative value to control (100%) [5, 19] | other results
1 | CC/C(=N\NC(=O)NCc1cccc(O)c1)c1ccc(O)c(C)c1O [k-1:J-1] | ⊙ | ⊙ | ⊙ | ⊙ | ⊙ | ⊙ | ⊙ | ⊙ | promoted proliferation activity in human umbilical vein endothelial cells | ⊙ | ⊙ | ⊙ | ⊙ | promoted proliferation activity in plural animal cell lines | promoted proliferation activity in a plurality of cancer cell lines | – | – | – | – | viability at 5 µM ([4]; Chlorocebus sabaeus, 96 h, read-out: number of viable cells (RLU), relative value to control (100%)): 120 to 150%; viability at 5 µM ([5]; read-out: number of viable cells (RLU), relative value to control (100%), CHO-K1, low attachment U-bottom plate, 5 μM): < 119%; viability at 10 µM ([5]; read-out: number of viable cells (RLU), relative value to control (100%), CHO-K1, low attachment U-bottom plate, 10 μM): < 119%; viability at 5 µM ([5]; read-out: number of viable cells (RLU), relative value to control (100%), CHO-K1, low attachment flat bottom plate (deacylated gellan gum-containing medium), 5 μM): 120 to 150%
2 | CC/C(=N\NC(=O)NCc1ccccc1)c1ccc(O)c(C)c1O [k-1:I-1] | – | – | – | – | – | – | – | – | promoted proliferation activity in human umbilical vein endothelial cells | – | ⊙ | – | – | promoted proliferation activity in plural animal cell lines | promoted proliferation activity in a plurality of cancer cell lines | < 119 | < 119 | – | – | viability at 5 µM [1, 7]: < 119%; viability at 10 µM [1, 8]: < 119%; viability at 5 µM [1, 9]: < 119%; viability at 10 µM [1, 10]: 120 to 150%; viability at 5 µM [2, 7]: 120 to 150%; viability at 10 µM [2, 8]: 120 to 150%; viability at 5 µM [2, 9]: < 119%; viability at 10 µM [2, 10]: 120 to 150%; viability at 5 µM ([3]; low attachment U-bottom plate): 327%; viability at 10 µM ([3]; low attachment U-bottom plate): 304%; viability at 5 µM [3, 15]: 209%; viability at 10 µM [3, 15]: 268%; viability at 5 µM ([4]; Chlorocebus sabaeus, 96 h, low attachment U-bottom plate, 5 μM, 4 days, read-out: number of viable cells (RLU), relative value to control (100%)): > 120%; viability at 5 µM ([4]; Chlorocebus sabaeus, 96 h, low attachment flat bottom plate (deacylated gellan gum-containing medium), 5 μM, 4 days, read-out: number of viable cells (RLU), relative value to control (100%)): < 119%; viability at 10 µM ([4]; Chlorocebus sabaeus, 96 h, low attachment flat bottom plate (deacylated gellan gum-containing medium), 10 μM, 4 days, read-out: number of viable cells (RLU), relative value to control (100%)): < 119%; viability at 5 µM ([5]; CHO-K1, low attachment flat bottom plate (deacylated gellan gum-containing medium), 5 μM, read-out: number of viable cells (RLU), relative value to control (100%)): < 119%; viability at 10 µM ([5]; CHO-K1, low attachment flat bottom plate (deacylated gellan gum-containing medium), 10 μM, read-out: number of viable cells (RLU), relative value to control (100%)): < 119%
3 | CC/C(=N\NC(=O)CNc1cccc(O)c1)c1ccc(O)c(C)c1O [k-1:D-1] | ⊙ | ⊙ | ⊙ | ⊙ | ⊙ | ⊙ | ⊙ | ⊙ | promoted proliferation activity in human umbilical vein endothelial cells | ⊙ | ⊙ | ⊙ | ⊙ | promoted proliferation activity in plural animal cell lines | promoted proliferation activity in a plurality of cancer cell lines | < 119 | < 119 | ⊙ | ⊙ | –
4 | CCC(=NNC(=O)C(CC)Nc1ccccc1)c1ccc(O)c(C)c1O (centres unmarked) [k-1:H-7] | – | – | – | – | – | – | – | – | promoted proliferation activity in human umbilical vein endothelial cells | ⊙ | ⊙ | ⊙ | – | promoted proliferation activity in plural animal cell lines | – | – | – | ⊙ | ◯ (one showing a value of not less than 120% as ◯) | –
